Series [1] concerns Clostridium difficile toxin A-induced colitis. As to the kind of experiment: Toxin A-induced colitis, chronic oral administration in drinking water for 5 days. The format is in vivo, Sprague-Dawley rats. Here is the method: Eighteen adult male Sprague-Dawley rats weighing 175-222 grams were divided into 3 groups each consisting of 6 animals: • 4-APAA (AA-002) 100 mg/kg orally+Toxin A (10 μg) injected into the lumen of the colon • Vehicle (DW) orally+Toxin A (10 μg) injected into the lumen of the colon • Vehicle (DW) orally
Following 5 days of 4-APAA administration in drinking water, both ketamine (67 mg/kg) and xylazine (33 mg/kg) were administered, an isolated colonic segment was surgically created, and 10 μg of Clostridium difficile toxin A was injected into the lumen of the colon. After 3 hours, the rats were euthanized and colonic inflammation was assessed by quantitating luminal fluid accumulation and myeloperoxidase (MPO) content in the colon tissue. In addition, histological evaluation of the treated colon segments was completed.
Drug Administration. In studies using chronic administration, sulfasalazine, APAZA™, and 4-APAA were administered in the drinking water at doses ranging from 0.1-100 mg/kg·d for 5 days. Sulfasalazine and APAZA™ were initially dissolved in 0.1 N NaOH at 30 times the desired final concentration and then the pH was adjusted to 8.5 with 1 N HCl and the solution was diluted 30-fold with distilled water. 4-APAA was dissolved in water. On the fifth day, the rats were fasted overnight (with access to their drinking water±sulfasalazine, APAZA™, or 4-APAA ad lib), anesthetized, and isolated colonic segments were surgically created as described below. In studies using acute administration, the rats were pretreated by injection of 4-APAA at doses of 10 or 100 μg in 200 μl of PBS (pH 7.4) into the lumen of the colonic segment using a 27 ga syringe needle. Toxin A (10 μg) in 200 μl of PBS (pH 7.4) was tested alone or injected into the lumen of the colonic segment 30 minutes after 4-APAA using a 27 ga syringe needle.
Surgery. Isolated colonic segments were created in male Sprague-Dawley rats (150-175 g) as described previously for isolated ileal segments (see, Gastroenterol. 111: 1272-1280 (1996) and Proc. Natl. Acad. Sci. USA 91: 947-951 (1994). Rats fasted overnight with free access to drinking water were anesthetized by intramuscular injection of 67 mg/kg ketamine:33 mg/kg xylazine. A midline abdominal incision was made and colonic segments 5 cm in length were created by ligation with 4-0 silk sutures, taking care not to disturb the vascular supply. Toxin A (10 μg) in 400 μl of PBS (pH 7.4) was injected into the lumen of the colonic segment using a 27 ga syringe needle. Control rats were prepared similarly and their colonic segments were injected with the vehicles. The midline incision was then closed with a running suture, and the rats were placed on a heating pad at 37° C. for 3 hours. After 3 hours, the rats were euthanized and samples of the treated colonic segments were taken for analysis in vitro.
Histopathology. The severity of colonic histological damage was assessed using formalin-fixed, paraffin-embedded, H&E-stained sections.
Luminal Fluid Accumulation. Luminal fluid accumulation was measured gravimetrically. After 3 hours of treatment, the isolated colonic segments were removed, weighed, and their lengths were measured. Luminal fluid accumulation is expressed as mg wet weight per cm length.
Myeloperoxidase Activity. Myeloperoxidase (MPO) activity was measured as described previously (see, J. Invest. Dermatol. 78: 206-209 (1982)). Briefly, pieces of control and treated colonic segments were homogenized in 0.5% hexadecyltrimethylammonium bromide in 50 mM KH2PO4 (pH 6), freeze/thawed three times, centrifuged at 4° C. for 2 minutes, and then the absorbance of each supernatant was read at 460 nm at 0, 30, and 60 seconds after the addition of 2.9 ml of o-dianisidine dihydrochloride to 0.1 ml supernatant. The maximal change in absorbance per minute was used to calculate the units of MPO activity based on the molar absorbency index of oxidized o-dianisidine of 1.13×10^4 M^−1 cm^−1. […]

Series [2] deals with DNBS colitis. Put plainly: Study AA-PH-003: oral and rectal APAZA and sulfasalazine in DNBS colitis. The class given is in vivo, male Lewis rats. On the set-up: Average Diarrhea Score Day 3: scale not given here. To be noted: for Colonic Inflammation Scores: scale 0-2. Here is the method:
Study AA-PH-003 was designed to evaluate the anti-inflammatory efficacy of oral and rectal doses of APAZATM and sulfasalazine in the DNBS colitis model in rats. […] Thirty-five adult male Lewis rats (body weight 200-250 g) were studied. […] Animal body weights and incidence of diarrhea were recorded daily. […] Animals in the DNBS groups and the parallel deionized water group were sacrificed on day 5. Laparotomies and colectomies were performed and animals were scored for the presence and severity of intestinal adhesions, strictures, inflammation, and ulceration. Colon: body weight ratios were determined and colon histopathology was performed.

For series [3], the system named is DSS induced colitis. As to the kind of experiment: Dextran sulfate sodium (DSS) colitis in the rat. The class given is in vivo, Sprague-Dawley rats. The conditions noted are these: oral gavage bid. Here is the method: The effectiveness of APAZA™ and sulfasalazine in ameliorating intestinal inflammation in a model of dextran sulfate sodium (DSS) induced colitis in Sprague-Dawley rats was determined. Thirty-six male Sprague-Dawley rats that were 7-8 weeks old and weighed 240-260 g were studied. […] After completion of the treatment period, rats were euthanized and the efficacy of the test drugs in inhibiting colitis was assessed by the following: • Disease Activity Index Scoring: • Body weight • Colon wet weight: body weight ratios • Colonic Myeloperoxidase (MPO) activity • Histopathological changes of the colon

The nature of series [4]: Single oral dose plasma pharmacokinetics and elimination of APAZA and metabolites in mice. To be noted: single oral dose of APAZA, male CD-1 mice. The format is in vivo, male CD-1 mice. Here is the method:
Initial single dose pharmacokinetic studies with the APAZA™ compound have been conducted in dogs and mice. A study was completed in order to determine the plasma pharmacokinetics and elimination of the APAZA™ compound and its metabolites (5-ASA, 4-APAA, 5-aceASA and 4-aceAPAA) following single oral dose administration to male CD-1 mice. […] When normalized to molar values, the Cmax values for all the APAZA™ metabolites were less than APAZA™; the values ranged from 2.68 to 13.8 μM. However, the normalized APAZA™ AUC∞ value was not greater than all the other metabolites; these values ranged from […]. […] The Tmax values for APAZA™ and its metabolites were 1 hour and 4 hours, respectively.

Where [5] appears, read: 100 mg/kg·day in drinking water, 5 days.
Setting [6] is: 100 mg/kg·day in drinking water, 5 days, toxin A 10 μg.
The mark [7] stands for this setting: orally + 30 mg DNBS, APAZA 200 mg/kg, sulfasalazine 265.6 mg/kg.
The mark [8] stands for this setting: rectally + 30 mg DNBS, APAZA 200 mg/kg, sulfasalazine 265.6 mg/kg.
The mark [9] stands for this setting: 1 mg/kg·day in drinking water, 5 days.
Setting [10] is: 10 mg/kg·day in drinking water, 5 days.

Turning to `O=C(O)Cc1ccc(/N=N/c2ccc(CC(=O)O)cc2)cc1` [4-APAA dimer, [4-(4-Carboxymethyl-phenylazo)-phenyl]-acetic acid], in series [1] (setting [5]), the “toxin A-induced MPO activity, significance of inhibition” value was “significantly inhibited”; the “toxin A-induced luminal fluid accumulation, significance of inhibition” value is “did not inhibit”; the “toxin A-induced structural damage of the colon (H&E)” value (shortened to “toxin A-induced structural damage”) was “did not inhibit”. Besides, in series [1] (setting [6]), the “percent inhibition of toxin A-induced MPO activity” value stood at 60±9% and the “percent inhibition of toxin A-induced luminal fluid accumulation” value is 21±8%.

With `O=C(O)c1cc(/N=N/c2ccc(S(=O)(=O)Nc3ccccn3)cc2)ccc1O` [sulfasalazine, reference compound], in series [2] (oral groups), the “reduction relative to control in net colon: body weight (% BW) ratio” value is 38.4%. Also, in series [2] (setting [7]), the “Average Diarrhea Score Day 3” value worked out at 2.4, the “Colon Histopathology (# severe lesions)” value amounted to 8, the “Length of Colonic Inflammation (cm)” value worked out at 2.3 cm and the “Mean Body Weight” value amounted to 215.4 g. Moreover, in series [2] (setting [7]), the “Mean Colon Length (cm)” value is 12.9 cm, the “Net Colon: Body Weight Ratio” value turned out to be 0.1862 and the “Colonic Inflammation Scores” value is 1.4. Also, in series [2] (setting [8]), the “Average Diarrhea Score Day 3” value is 2, the “Length of Colonic Inflammation (cm)” value came to 1.8 cm, the “Mean Body Weight” value was determined as 217.0 g and the “Mean Colon Length (cm)” value is 12.8 cm. Moreover, in series [2] (setting [8]), the “Net Colon: Body Weight Ratio” value came out at 0.179 and the “Colonic Inflammation Scores” value worked out at 1. In series [3] (days 10 and 11), the “body weights, rats drinking DW versus DSS” value is listed as “statistically significant differences”. In series [3] (APAZA 100 mg/kg, sulfasalazine 133 mg/kg), the “colon wet weight: body weight ratio, DSS versus DW” value is “increased”. Besides, the “Disease Activity Index (DAI) score” value in series [3] (rats drinking 5% DSS, APAZA 100 mg/kg, sulfasalazine 133 mg/kg) is given as “significantly greater”. In series [3] (rats receiving DSS), the “colonic MPO activity” value is on record as “significant increase” and the “histological changes of the colon” value is “severe colitis”. In series [1] (setting [9]), the “toxin A-induced MPO activity, significance of inhibition” value is “did not significantly inhibit”; the “toxin A-induced luminal fluid accumulation, significance of inhibition” value is given as “did not significantly inhibit”; the “toxin A-induced structural damage” value is listed as “little effect”. Further, in series [1] (setting [10]), the “toxin A-induced luminal fluid accumulation, significance of inhibition” value is on record as “significantly inhibited” and the “toxin A-induced structural damage” value is listed as “little effect”. In series [1] (setting [5]), the “toxin A-induced MPO activity, significance of inhibition” value is “significantly inhibited”; the “toxin A-induced luminal fluid accumulation, significance of inhibition” value was “significantly inhibited”; the “toxin A-induced structural damage” value was “did inhibit”. Also, the “doses that significantly inhibited toxin A-induced colitis” value in series [1] (chronically for 5 days in drinking water, doses tested 1-100) is on record as 100 mg/kg·day.

Regarding `CC(=O)Nc1ccc(O)c(C(=O)O)c1` [acetylated 5-ASA], the t1/2 in series [4] (plasma) was 11.27 h. In addition, the “plasma concentration at 24 hours” value in series [4] was “below the limit of detection”.

Consider `CC(=O)Nc1ccc(CC(=O)O)cc1` [4-aceAPAA, (4-acetylamino-phenyl)-acetic acid, reference compound], for which the “plasma concentration at 24 hours” value in series [4] is “below the limit of detection”.
